# According to patent publication US6287794A, “Factor Vlla inhibitors” (Aventis Pharma Deutschland GmbH, priority 1998, dated 2001):
# Non-standard residues stand in square brackets, D forms with d. Residues, ends and D or L forms follow the SMILES beside them. *: point of attachment. dPhe(4-guanidino) = N=C(N)Nc1ccc(C[C@@H](N)C(=O)O)cc1; Phe(4-guanidino) = N=C(N)Nc1ccc(C[C@H](N)C(=O)O)cc1; Phe(4-amidino) = N=C(N)c1ccc(C[C@H](N)C(=O)O)cc1; Cha = N[C@@H](CC1CCCCC1)C(=O)O; Chg = N[C@H](C(=O)O)C1CCCCC1; Dab = NCC[C@H](N)C(=O)O; Alloc = C=CCOC(=O)*
# Biological target: T1, human factor VIIa and TF (Homo sapiens, UniProt P08709)
# T1 construct: human factor VIIa and TF
# T1 sequence (P08709 213-466 limits assumed): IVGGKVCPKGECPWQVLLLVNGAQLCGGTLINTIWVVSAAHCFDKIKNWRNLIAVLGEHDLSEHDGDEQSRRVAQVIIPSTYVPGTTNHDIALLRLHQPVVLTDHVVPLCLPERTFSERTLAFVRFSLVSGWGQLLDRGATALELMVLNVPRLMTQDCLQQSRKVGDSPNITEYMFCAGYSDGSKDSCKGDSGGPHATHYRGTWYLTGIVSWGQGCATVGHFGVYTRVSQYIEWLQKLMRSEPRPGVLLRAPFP
# T1 sequence (P08709 61-212 limits assumed): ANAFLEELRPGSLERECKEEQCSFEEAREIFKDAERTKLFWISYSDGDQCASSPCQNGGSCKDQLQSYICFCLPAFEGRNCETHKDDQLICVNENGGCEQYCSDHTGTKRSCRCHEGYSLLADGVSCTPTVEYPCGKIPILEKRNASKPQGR
# T1 sequence (P13726 33-295 partner): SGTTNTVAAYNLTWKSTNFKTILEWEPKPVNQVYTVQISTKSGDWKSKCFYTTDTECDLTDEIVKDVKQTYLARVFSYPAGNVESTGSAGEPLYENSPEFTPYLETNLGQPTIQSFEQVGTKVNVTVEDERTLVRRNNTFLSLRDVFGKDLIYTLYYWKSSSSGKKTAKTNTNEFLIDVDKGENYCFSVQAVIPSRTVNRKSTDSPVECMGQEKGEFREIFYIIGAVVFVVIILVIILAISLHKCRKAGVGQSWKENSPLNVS
# Experiment: Determination of Ki for FVIIa inhibition (chromogenic assay, substrate S-2288)
# Assay type: biochemical
# Conditions: human factor VIIa 5 nM and TF 10 nM, S-2288 500 μM, 25° C., 15 minute preincubation, pH 8.15; read-out: Factor VIIa inhibitory activities Ki
# Protocol: The inhibitory activity (Ki) of each compound towards […] activity was determined using a chromogenic assay essentially as described previously. J. A. Ostrem, F. Al-Obeidi, P. Safar, A. Safarova, S. K. Stringer, M. Patek, M. T. Cross, J. Spoonamore, J. C. LoCascio, P. Kasireddy, D. S. Thorpe, N. Sepetov, M. Lebi, P. Wildgoose, P. Strop, "Discovery of a novel, potent, and specific family of factor Xa inhibitors via combinatorial chemistry". Biochemistry 37 (1998) 1053-1059. Kinetic assays were conducted at 25° C. in half-area microtiter plates (Costar Corp., Cambridge, Mass.) using a kinetic plate reader (Molecular Devices Spectramax 250). A typical assay consisted of 25 μl of human factor VIIa and TF (5 nM and 10 nM, respective final concentration) combined with 40 μl of inhibitor dilutions in 10% DMSO/TBS-PEG buffer (50 mM Tris, 15 mM NaCl, 5 mM CaCl2; 0.05% PEG 8k, pH 8.15). Following a 15 minute preincubation period, the assay was initiated by the addition of 35 μl of the chromogenic substrate S-2288 (D-Ile-Pro-Arg-pNA, Pharmacia Hepar Inc, 500 μM final concentration.). The apparent inhibition constants were calculated from the slope of the progress curves during the linear part of the time course, typically between 1 and 5 min following addition of substrate to the assay. The true Ki was subsequently determined for each compound by correcting for substrate concentration (S) and the Km using the formula Ki=Ki app/(1+(S)/Km). I. H. Segal, Enzyme Kinetics, pp 100-125 (John Wiley & Sons, N.Y., 1975).
row,Compound,Ki
1,"C=CCOC(=O)N[C@@H](Cc1ccc(C(=N)N)cc1)C(=O)N[C@@H](CCC(=O)O)C(=O)N[C@@H](CC(N)=O)C(=O)NCc1ccc(Cl)c(Cl)c1 [Alloc--pAph--Glu--Asn-3,4-dichlorobenzylamide]",26 nM
2,C=CCOC(=O)N[C@@H](Cc1ccc(C(=N)N)cc1)C(=O)N[C@@H](CCC(=O)O)C(=O)N[C@@H](CC(N)=O)C(=O)NCCc1cccc2ccccc12 [Alloc--pAph--Glu--Asn-2-(1-naphthyl)ethylamide],22 nM
3,C=CCOC(=O)N[C@@H](Cc1ccc(C(=N)N)cc1)C(=O)N[C@@H](CCC(=O)O)C(=O)N[C@@H](CC(N)=O)C(=O)NCc1ccc(N(C)C)cc1 [Alloc--pAph--Glu--Asn-4-dimethylaminobenzylamide],110 nM
4,"C=CCOC(=O)N[C@@H](Cc1ccc(C(=N)N)cc1)C(=O)N[C@@H](CCC(=O)O)C(=O)N[C@@H](CC(N)=O)C(=O)NCc1cc(C(F)(F)F)cc(C(F)(F)F)c1 [Alloc--pAph--Glu--Asn-3,5-bistrifluoromethylbenzylamide]",33 nM
5,C=CCOC(=O)N[C@@H](Cc1ccc(C(=N)N)cc1)C(=O)N[C@@H](CCC(=O)O)C(=O)N[C@@H](CC(N)=O)C(=O)NCCC(C)C [Alloc--pAph--Glu--Asn-3-methylbutylamide],110 nM
6,C=CCOC(=O)N[C@@H](Cc1ccc(C(=N)N)cc1)C(=O)N[C@@H](CCC(=O)O)C(=O)N[C@@H](CC(N)=O)C(=O)NCc1cccc2ccccc12 [Alloc--pAph--Glu--Asn-1-naphthylmethylamide],31 nM
7,C=CCOC(=O)N[C@@H](Cc1ccc(C(=N)N)cc1)C(=O)N[C@@H](CCC(=O)O)C(=O)N[C@@H](CC(N)=O)C(=O)NC(C)c1cccc2ccccc12 (stereo partly shown) [Alloc--pAph--Glu--Asn-1-(1-naphthyl)ethylamide],21 nM
8,C=CCOC(=O)N[C@@H](Cc1ccc(C(=N)N)cc1)C(=O)N[C@@H](CCC(=O)O)C(=O)N[C@@H](CC(N)=O)C(=O)NCCc1ccc(S(N)(=O)=O)cc1 [Alloc--pAph--Glu--Asn-2-(4-sulfamoylphenyl)ethylamide],350 nM
9,C=CCOC(=O)N[C@@H](Cc1ccc(C(=N)N)cc1)C(=O)N[C@@H](CCC(=O)O)C(=O)N[C@@H](CC(N)=O)C(=O)NCCCc1ccccc1 [Alloc--pAph--Glu--Asn-3-phenylpropylamide],26 nM
10,"C=CCOC(=O)N[C@@H](Cc1ccc(C(=N)N)cc1)C(=O)N[C@@H](CCC(=O)O)C(=O)N[C@@H](CC(N)=O)C(=O)NCC(c1ccccc1)c1ccccc1 [Alloc--pAph--Glu--Asn-2,2-diphenylethylamide]",49 nM
11,C=CCOC(=O)N[C@@H](Cc1ccc(C(=N)N)cc1)C(=O)N[C@@H](CCC(=O)O)C(=O)N[C@@H](CC(N)=O)C(=O)NCc1ccc2ccccc2c1 [Alloc--pAph--Glu--Asn-2-naphthylmethylamide],27 nM
12,"C=CCOC(=O)N[C@@H](Cc1ccc(C(=N)N)cc1)C(=O)N[C@@H](CCC(=O)O)C(=O)N[C@@H](CC(N)=O)C(=O)NC1CCCc2ccccc21 (stereo partly shown) [Alloc--pAph--Glu--Asn-1,2,3,4-tetrahydro-1-naphthylamide]",45 nM
13,C=CCOC(=O)N[C@@H](Cc1ccc(C(=N)N)cc1)C(=O)N[C@@H](CCC(=O)O)C(=O)N[C@@H](CC(N)=O)C(=O)NCC1CCCO1 (stereo partly shown) [Alloc--pAph--Glu--Asn-2-tetrahydrofuranylmethylamide],170 nM
14,C=CCOC(=O)N[C@@H](Cc1ccc(C(=N)N)cc1)C(=O)N[C@@H](CCC(=O)O)C(=O)N[C@@H](CC(N)=O)C(=O)NCCc1ccccn1 [Alloc--pAph--Glu--Asn-2-(2-pyridyl)ethylamide],71 nM
15,"C=CCOC(=O)N[C@@H](Cc1ccc(C(=N)N)cc1)C(=O)N[C@@H](CCC(=O)O)C(=O)N[C@@H](CCCNC(=N)N)C(=O)N[C@H](C(N)=O)C1CCCCC1 [Alloc--pAph--Glu--Arg--Chg--NH2, Alloc-pAph-Glu-Arg-Chg-NH2] (Alloc-[Phe(4-amidino)]ER[Chg]-NH2)",238 nM
16,"C=CCOC(=O)N[C@@H](Cc1ccc(C(=N)N)cc1)C(=O)N[C@@H](CCC(=O)O)C(=O)N[C@@H](CCCNC(=N)N)C(=O)N[C@@H](CC1CCCCC1)C(N)=O [Alloc--pAph--Glu--Arg--Cha--NH2, Alloc-pAph-Glu-Arg-Cha-NH2] (Alloc-[Phe(4-amidino)]ER[Cha]-NH2)",46 nM

# Continued, values first:
row,Ki,Compound
1,110 nM,C=CCOC(=O)N[C@@H](Cc1ccc(C(=N)N)cc1)C(=O)N[C@@H](CCC(=O)O)C(=O)N[C@@H](CNC(C)=N)C(=O)N[C@@H](CC1CCCCC1)C(N)=O [Alloc-pAph-Glu-Dap[--C(=NH)--CH3 ]-Cha-NH2]
2,83 nM,C=CCOC(=O)N[C@@H](Cc1ccc(C(=N)N)cc1)C(=O)N[C@@H](CCC(=O)O)C(=O)N[C@@H](CC(N)=O)C(=O)NCc1ccc(OC)cc1 [Alloc--pAph--Glu--Asn-4-methoxybenzylamide]
3,380 nM,"C=CCOC(=O)N[C@@H](Cc1ccc(C(=N)N)cc1)C(=O)N[C@@H](CCC(=O)O)C(=O)N[C@@H](CCN)C(=O)NCCc1ccccc1 [Alloc--pAph--Glu--Dab--NH--(CH2)2 --Ph, Alloc-pAph-Glu-Dab-NH--CH2 --CH2 --Ph]"
4,1500 nM,C=CCOC(=O)N[C@@H](Cc1ccc(C(=N)N)cc1)C(=O)N[C@@H](CCC(=O)O)C(=O)N[C@@H](CCC(N)=O)C(N)=O [Alloc--pAph--Glu--Gln--NH2]
5,23 nM,C=CCOC(=O)N[C@@H](Cc1ccc(C(=N)N)cc1)C(=O)N[C@@H](CCC(=O)O)C(=O)N[C@@H](CC(N)=O)C(=O)NC1c2ccccc2-c2ccccc21 [Alloc--pAph--Glu--Asn-9-fluorenylamide]
6,17 nM,C=CCOC(=O)N[C@@H](Cc1ccc(C(=N)N)cc1)C(=O)N[C@@H](CCC(=O)O)C(=O)N[C@@H](Cc1c[nH]c2ccccc12)C(=O)N[C@@H](CC1CCCCC1)C(N)=O [Alloc--pAph--Glu--Trp--Cha--NH2] (Alloc-[Phe(4-amidino)]EW[Cha]-NH2)
7,120 nM,C=CCOC(=O)N[C@@H](Cc1ccc(C(=N)N)cc1)C(=O)N[C@@H](CCC(=O)O)C(=O)N[C@@H](Cc1ccc(NC(=N)N)cc1)C(=O)N[C@@H](CC1CCCCC1)C(N)=O [Alloc-pAph-Glu-Phe(4-guanidino)-Cha-NH2] (Alloc-[Phe(4-amidino)]E[Phe(4-guanidino)][Cha]-NH2)
8,11300 nM,C=CCOC(=O)N[C@@H](Cc1ccc(C(=N)N)cc1)C(=O)N[C@@H](CCC(=O)O)C(=O)N[C@H](Cc1ccc(NC(=N)N)cc1)C(=O)N[C@@H](CC1CCCCC1)C(N)=O [Alloc--pAph--Glu--D--Phe(4-guanidino)--Cha--NH2] (Alloc-[Phe(4-amidino)]E[dPhe(4-guanidino)][Cha]-NH2)
9,140 nM,C=CCOC(=O)N[C@@H](Cc1ccc(C(=N)N)cc1)C(=O)N[C@@H](CCC(=O)O)C(=O)N[C@@H](Cc1c[nH]cn1)C(=O)N[C@@H](CC1CCCCC1)C(N)=O [Alloc--pAph--Glu--His--Cha--NH2] (Alloc-[Phe(4-amidino)]EH[Cha]-NH2)
10,1700 nM,C=CCOC(=O)N[C@@H](Cc1ccc(C(=N)N)cc1)C(=O)N[C@@H](CCC(=O)O)C(=O)N[C@@H](CC(N)=O)C(=O)N(C)Cc1cccc2ccccc12 [Alloc--pAph--Glu--Asn-N-methyl-N-(1-naphthylmethyl)amide]
11,150 nM,C=CCOC(=O)NCC[C@H](NC(=O)[C@H](CCC(=O)O)NC(=O)[C@H](Cc1ccc(C(=N)N)cc1)NC(=O)OCC=C)C(=O)N[C@@H](CC1CCCCC1)C(N)=O [Alloc--pAph--Glu--Dab(Alloc)--Cha--NH2] (Alloc-[Phe(4-amidino)]E[Dab](Alloc)[Cha]-NH2)
12,120 nM,"C=CCOC(=O)N[C@@H](Cc1ccc(C(=N)N)cc1)C(=O)N[C@@H](CCC(=O)O)C(=O)NCC(=O)N[C@@H](CC1CCCCC1)C(N)=O [Alloc--pAph--Glu--Gly--Cha--NH2, Alloc-pAph-Glu-Gly-Cha-NH2] (Alloc-[Phe(4-amidino)]EG[Cha]-NH2)"
